# pKd, pKi: −log10 of the molar value. Counter-ions that a name gives are not always drawn.
# Molecular target: T1, h-5-HT6 receptor (Homo sapiens, UniProt P50406)
# T1 construct: expressed in transfected cells
# Experiment: 5-HT6 receptor binding assay (displacement of [3H]-LSD)
# Settings: membranes of HEK293 cells expressing h-5-HT6 receptor, 1 nM [3H]-LSD
# Protocol: Displacement of radioligands binding to the following cloned human receptors
# Cells from stable clonal cell lines expressing the corresponding receptor (5-HT6, α1-adrenergic, dopamine D2 or histamine H1 receptors) were washed with PBS (w/o Ca^++, Mg^++) and harvested in PBS with 0.02% EDTA. The cells were collected by centrifugation at 500 g for 10 min. at 4° C., washed with PBS and centrifuged (500 g, 10 min. 4° C.). The pellets were stored at −80° C. until use. For membrane preparation, the thawed cell pellet was resuspended in ice-cold sucrose buffer (0.25 M sucrose, 10 mM Hepes (pH 7.4), 1 mM Phenylmethylsulfonyl fluoride (PMSF) in DMSO, 5 μg/ml Pepstatin-A, 3 mM EDTA, 0.025% Bacitracin) and homogenized with a Branson Sonifier W-250 (Settings: Timer 4; Output Control 3; Duty Cycle constant; 2 to 3 cycles). Cell disruption was checked with the aid of a microscope. Remaining unbroken cells were pelleted at 1.000 g for 10 min. at 4° C. The sucrose buffer supernatant was then centrifuged at 60.000 g for 1 h at 4° C. (Beckman Ultrazentrifuge XL 80). The pellet was resuspended in 30 ml ice-cold Tris buffer (20 mM TRIS (pH 7.4), 5 μg/ml Pepstatin A, 0.1 mM PMSF, 3 mM EDTA) by pipetting through a 10 ml serological pipet and centrifuged for 1 h at 4° C. at 60.000 g. A final resuspension was performed in a small volume of ice-cold Tris buffer (see above) by pressing through a serological pipet followed by ultrasonic treatment with a Branson Sonifier W-250 (Settings: Timer 1; Output Control 3; Duty Cycle constant; 1 cycle). Protein concentration was determined (BCA-Kit; Pierce) and aliquots stored at −80° C. or in liquid nitrogen for long-term storage.
# All receptor binding experiments were carried out in the corresponding assay buffer in a total volume of 200 μl in the presence of various concentrations of test compound (10^−5 M to 10^−9 M, tenfold serial dilution, duplicate determinations). The assays were terminated by filtration on polyethylenimine (PEI 0.1% or 0.3%) presoaked Packard Unifilter Plates (GF/C or GF/B) with a Tomtec MachIII U 96 well-plate harvester. After the plates had been dried for 2 h at 55° C. in a drying chamber scintillation cocktail (BetaPlate Scint; PerkinElmer) was added. Radioactivity was measured in a Microbeta Trilux two hours after the addition of the scintillation mixture. Data derived from liquid scintillation counting were analysed by iterative non-linear regression analysis with the use of the Statistical Analysis System (SAS): a program similar to “LIGAND” as described by Munson and Rodbard (Analytical Biochemistry 107, 220-239 (1980).
# HEK293 cells stably expressing the h-5-HT6 receptor (NCBI Reference Sequence XM 001435) were cultured in RPMI1640 medium supplemented with 25 mM HEPES, 10% fetal calf serum and 1-2 mM glutamine. The membrane preparation was performed as described in section 1. […] Non-specific binding was defined with 1 μM methiothepin. The binding reaction was carried out for 3.5 h at room temperature. During the incubation, the plates were shaken on a plate shaker at 100 rpm and terminated by filtration on Packard Unifilter GF/C (0.1% PEI) plates, followed by 2 wash cycles with ice-cold 50 mM Tris-HCl, 5 mM CaCl2.
# Data derived from liquid scintillation counting were analyzed by iterative non-linear regression analysis with the use of the Statistical Analysis System (SAS): a program similar to “LIGAND” as described by Munson and Rodbard (Anal. Biochem. 1980, 107, 220-239). Fitting was performed according to formulae described by Feldman (Anal. Biochem. 1972, 48, 317-338). IC50, nH and Ki values were expressed as geometrical mean.
# T1 sequence (P50406 whole entry): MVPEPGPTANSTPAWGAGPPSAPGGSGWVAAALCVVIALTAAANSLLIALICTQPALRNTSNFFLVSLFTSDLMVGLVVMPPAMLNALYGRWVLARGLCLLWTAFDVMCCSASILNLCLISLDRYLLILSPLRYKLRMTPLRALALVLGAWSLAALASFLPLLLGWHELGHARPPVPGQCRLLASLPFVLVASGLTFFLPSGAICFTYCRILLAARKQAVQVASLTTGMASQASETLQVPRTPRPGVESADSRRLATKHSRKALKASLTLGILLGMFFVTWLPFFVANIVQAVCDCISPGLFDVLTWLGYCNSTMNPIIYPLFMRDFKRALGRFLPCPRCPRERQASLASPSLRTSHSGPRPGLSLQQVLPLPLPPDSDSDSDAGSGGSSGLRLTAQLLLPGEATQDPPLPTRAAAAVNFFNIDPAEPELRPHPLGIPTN
row,Molecule,pKi
1,"COCc1ccccc1NS(=O)(=O)c1ccc(OC)c(C2CCNCC2)c1 [Example 6, 4-Methoxy-N-(2-methoxymethyl-phenyl)-3-piperidin-4-yl-benzenesulfonamide hydrochloride]",> 7.00
2,"COc1ccc(S(=O)(=O)Nc2ccc(C)cc2OC(F)F)cc1C1CCNCC1 [Example 5, N-(2-Difluoromethoxy-4-methyl-phenyl)-4-methoxy-3-piperidin-4-yl-benzenesulfonamide hydrochloride]",> 7.70

# Continued, values first:
row,pKi,Molecule
1,> 8.00,"COc1ccc(S(=O)(=O)Nc2cc(C)ccc2OC(F)F)cc1C1CCN(C)C1 (centres unmarked) [Example 2, N-(2-Difluoromethoxy-5-methyl-phenyl)-4-methoxy-3-(1-methyl-pyrrolidin-3-yl)-benzenesulfonamide hydrochloride]"
2,> 7.70,"COCc1ccccc1NS(=O)(=O)c1ccc(OC)c(C2CCNC2)c1 (centres unmarked) [Example 3, 4-Methoxy-N-(2-methoxymethyl-phenyl)-3-pyrrolidin-3-yl-benzenesulfonamide hydrochloride]"
3,> 8.00,"COc1ccc(S(=O)(=O)Nc2cc(C)ccc2OC(F)F)cc1C1CCNC1 (centres unmarked) [Example 1, N-(2-Difluoromethoxy-5-methyl-phenyl)-4-methoxy-3-pyrrolidin-3-yl-benzenesulfonamide hydrochloride]"
4,> 8.00,"COc1ccc(S(=O)(=O)Nc2cc(C)ccc2OC(F)F)cc1C1CCN(C)CC1 [Example 7, N-(2-Difluoromethoxy-5-methyl-phenyl)-4-methoxy-3-(1-methyl-piperidin-4-yl)-benzenesulfonamide hydrochloride]"
5,> 8.00,"COc1ccc(S(=O)(=O)Nc2cc(C)ccc2OC(F)F)cc1C1CCNCC1 [Example 4, N-(2-Difluoromethoxy-5-methyl-phenyl)-4-methoxy-3-piperidin-4-yl-benzenesulfonamide hydrochloride]"

# Molecular target: T2, dopamine D2 receptor (Homo sapiens, UniProt P14416)
# T2 construct: expressed in transfected cells
# Experiment: Dopamine D2 receptor binding assay (displacement of [125I]-iodospiperone)
# Settings: saturation binding experiments, HEK293 D2 membranes; read-out: KD of radioligand
# Protocol: The pellets were stored at −80° C. until use. […] (Beckman Ultrazentrifuge XL 80).
# Non-specific binding was defined with 1 μM haloperidol.
# T2 sequence (P14416 whole entry): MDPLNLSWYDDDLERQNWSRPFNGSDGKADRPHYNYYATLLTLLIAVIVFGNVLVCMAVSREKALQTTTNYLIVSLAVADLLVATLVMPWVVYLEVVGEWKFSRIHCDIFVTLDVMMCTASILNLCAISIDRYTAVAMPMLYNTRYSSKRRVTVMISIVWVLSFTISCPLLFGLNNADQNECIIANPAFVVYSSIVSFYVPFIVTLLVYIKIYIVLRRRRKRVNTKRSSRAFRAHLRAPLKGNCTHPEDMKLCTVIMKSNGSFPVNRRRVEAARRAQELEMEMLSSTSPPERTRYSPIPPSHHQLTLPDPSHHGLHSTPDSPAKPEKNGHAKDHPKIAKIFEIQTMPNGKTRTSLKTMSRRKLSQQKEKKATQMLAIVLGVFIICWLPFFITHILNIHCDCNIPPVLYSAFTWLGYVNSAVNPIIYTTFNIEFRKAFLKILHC
row,Molecule,pKd
1,iodospiperone [[^125I]-iodospiperone],9.66

# Source: US8772313B2, “Benzenesulfonyl or sulfonamide compounds suitable for treating disorders that respond to the modulation of the serotonin 5-HT6 receptor” (Abbott Laboratories, priority 2010, dated 2014)
